These results are taken from patent publication US6114326A, “Use of cabergoline in the treatment of restless legs syndrome” (priority 1999, dated 2000).

“Also recorded” adds a separate entry of the source.

Series [1] deals with restless legs syndrome patients. The series is described as follows: Polysomnography in 12-week open label pilot trial of single evening cabergoline dose in RLS. The series is classed as in vivo. The method, then: Cabergoline in RLS, ENS, Nice, Abstract.
Efficacy was assessed by polysomnography and subjective ratings.
(§1) Following a 2-week baseline period, all patients were treated with cabergoline in an open trial for 12 weeks. Apart from levodopa, patients had to stop taking any medication known to have positive or negative effect on RLS two weeks before baseline (i.e., other dopamine agonists, benzodiazepines, opioids or other psychotropic agents). Patients who were on levodopa therapy were allowed to either stop levodopa prior to study entry or to continue, taper or discontinue levodopa during the study. To prevent well known peripheral dopaminergic side-effects such as nausea, vomiting, vertigo and arterial hypotension domperidone (not available in the United States) was comedicated initially and also tapered if possible. […] Neurological case history, examination, electrocardiogramm, chest x-ray and polysomnography were performed to ensure that selection criteria were fulfilled. A two-night PSG (including one night of adaptation) was performed to evaluate the diagnosis and inclusion/exclusion criteria regardless if patients were on or off levodopa. After a 12-week treatment period patients were studied again for one night in the sleep laboratory. Subjective ratings were obtained at baseline, week 4, week 8 and at the endpoint after 12 weeks. In addition patients were monitored by phone calls to note any adverse events and to determine whether to increase the dosage of the study drug, to decrease levodopa and to decrease domperidone. The time schedule of phone calls was variable and the frequency mostly dependent on the presence of simultaneous levodopa therapy.
Inclusion criteria. Patients were included if they fulfilled the minimal diagnostic criteria according to the International RLS Study Group. After rating clinical symptoms at baseline, patients were referred to polysomnography without any RLS specific treatment other than levodopa. Patients were included if they had more than five PLM per hour of time-in-bed (PLM index) and a sleep efficiency index (total sleep time per hour time-in-bed) of less than 85%.
Exclusion criteria. Patients with signs of any other sleep disorder on PSG, especially sleep apnea syndrome (respiratory disturbances index >5 per hour total sleep time), were excluded. Subjects receiving neuroleptic, antidepressant or other psychotropic medications or with any severe additional illness (with special consideration to pulmonary fibrosis) or drug abuse were also excluded. Patients with established or suspected hypersensitivity to ergot derivates and patients with clinical significant change in routine laboratory studies were not included. Pregnant or lactating women or women without safe contraception were not allowed to participate in this study.
Dosing. Study medication was available in tablets containing 0.5 mg, 1 mg or 2 mg Cabergoline (Cabaseril®, Pharmacia & Upjohn, Erlangen, Germany). Medication was taken 2 hours prior to bedtime. Initial therapy consisted of one 0.5 mg tablet. […] The increased dose could be decreased again if necessary. All patients were initially comedicated with domperidone 20 mg t.i.d. which could be tapered and stopped if possible. Subjects who were pretreated with levodopa were asked to decrease levodopa simultaneously if possible.
Polysomnographic studies. At baseline and at the study end after 12 weeks PSG recordings were performed for one night (11 p.m.-7 a.m.) to evaluate inclusion/exclusion criteria and to obtain primary and secondary efficacy parameters. Studies included monitoring of electroencephalogram (EEG) (C3-A2, C4-A1), electrooculogram, chin EMG, EMG of both anterior tibialis muscles and electrocardiogram (ECG). PSG methods used standard procedures such as Pollmacher and Schultz. At baseline respiration, oronasal airflow, respiration effort and oxygen saturation were monitored by standard methods. Sleep scoring was also done by methods. […]

The test system is the same in series [2]. As to the kind of experiment: Physician's rating (CGI) in 12-week open label trial. The series is classed as in vivo. As to the method:
as §1
Physician's rating. The physician rated the severity of illness at baseline (normal to extremely ill), the global improvement (general condition very much worse to very much better) and the side effects by use of the Clinical Global Impressions (CGI). Safety. Safety of Cabergoline was assessed to the type and frequency of adverse event, clinically significant changes in laboratory data or ECG and premature discontinuation of study participation. Adverse events were classified as serious versus nonserious and characterized by intensity, relationship to drug treatment, frequency, course and therapeutic intervention.
Statistical analysis. Statistical evaluation was performed as intent-to-treat analysis using descriptive statistics.

A short description of series [3]: Half-life and duration of action. The series is classed as in vivo. To be noted: 'here we report'.
The conditions of series [4]: cited to Ahlskog et al. 1996; cited from earlier work.
The test system of series [5] is D1 family of receptors. To be noted: cited from earlier work.

Consider `C=CCN1C[C@H](C(=O)N(CCCN(C)C)C(=O)NCC)C[C@@H]2c3cccc4[nH]cc(c34)C[C@H]21` [Cabergoline, 1((6-allylergolin-8β-yl) -carbony.)-1-(3-(dimethylamino)propyl)-3-ethylurea], for which, in series [1] (endpoint vs. baseline), the “increase in total sleep time” value is “more than one”; the “reduction of PLM during time in bed, PLM arousals and PLM awakenings (in words)” value is “significant reduction”; the “sleep efficiency (in words)” value is “increased”; the “sleep latency (in words)” value is given as “shortened”. For the same compound, in series [1] (endpoint vs. baseline), the “total sleep time (in words)” value is reported as “prolonged”. Moreover, the “total number of PLM during time in bed (No. Of PLM)” value in series [1] (week 12, cabergoline monotherapy (mean 2.1 mg, single evening dose), baseline 195.8 ± 109.1) is given as 26.4±40.2. The “number of PLM awakenings” value in series [1] (week 12, cabergoline monotherapy, baseline 9.6 ± 4.9) came out at 1.0±2.0. The PLM arousal index in series [1] (week 12, cabergoline monotherapy, baseline 10.4 ± 7.8) is given as 1.0±1.7 number of PLM arousals per hou. Moreover, the PLM index in series [1] (week 12, cabergoline monotherapy, baseline 27.7 ± 17.1) is reported as 3.6±5.3 number of PLM per hour time in. The “Sleep Latency” value in series [1] (week 12, cabergoline monotherapy, baseline 42.4 ± 49.1) stood at 16.3 ± 22.8 min. The compound also yielded a PLM arousals in series [1] (week 12, cabergoline monotherapy, baseline 51.7 ± 42.3) of 6.4±11.2. The same compound displayed a Sleep efficiency in series [1] (week 12, cabergoline monotherapy, baseline 63.1 ± 10.5) of 79.1±12.5%. In series [1] (week 12, cabergoline monotherapy, baseline 302.7 ± 50.7), this compound yielded a Total sleep time of 379.4 ± 59.8 min. The “global improvement (physician's rating, in words)” value in series [2] (in vivo) was “significant global improvement”. Besides, in series [2] (of 9 patients), the “general condition minimally better (physician's rating), number of patients” value was 1; the “general condition much better (physician's rating), number of patients” value is 3; the “general condition very much better (physician's rating), number of patients” value worked out at 5. The “duration of action (may last)” value in series [3] is at most 65 h. Further, in series [4], the duration of action result is on record as “at least 24 hours”. Further, the “D1 family activity (in words)” value in series [5] was “partial D1 activity; also recorded: partial DI family activity”.
